Data: article PMC10457016 (Journal of fluorine chemistry, 2023)
≈ marks a conversion by molar mass, not a printed value. Read-outs that look alike come from different tables or passages of the source.

Experiments:
human sEH = target: T1, human sEH (Homo sapiens, UniProt P34913); assay: Determination of inhibitory potency; assay type: biochemical
T1 sequence (P34913 1-555): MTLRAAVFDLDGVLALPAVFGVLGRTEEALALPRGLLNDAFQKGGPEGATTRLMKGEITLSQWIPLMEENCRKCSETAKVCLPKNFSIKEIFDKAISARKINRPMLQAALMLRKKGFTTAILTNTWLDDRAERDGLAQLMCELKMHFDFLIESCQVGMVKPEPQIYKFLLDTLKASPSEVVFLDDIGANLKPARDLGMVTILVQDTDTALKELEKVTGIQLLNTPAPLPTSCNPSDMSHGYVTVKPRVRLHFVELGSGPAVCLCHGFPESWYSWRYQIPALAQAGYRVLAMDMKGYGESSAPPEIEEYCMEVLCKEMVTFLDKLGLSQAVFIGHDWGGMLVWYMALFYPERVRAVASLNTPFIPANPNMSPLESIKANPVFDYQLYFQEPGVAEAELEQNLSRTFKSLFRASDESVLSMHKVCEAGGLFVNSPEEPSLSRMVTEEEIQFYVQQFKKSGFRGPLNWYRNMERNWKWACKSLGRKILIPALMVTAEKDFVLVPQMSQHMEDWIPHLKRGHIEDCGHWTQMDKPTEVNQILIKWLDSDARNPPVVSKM

[1] = Solubility in sodium phosphate buffer; assay type: physicochemical
[2] = sodium phosphate buffer, pH 7.4, aqueous buffer
[3] = kinetic fluorescent assay, substrate 5 μM, human sEH 1 nM, means of three separate experiments
[4] = sodium phosphate buffer (pH 7.4, 0.1 M) containing 1% of DMSO

| Structure (SMILES) | IC50 (human sEH) [nM] | Solubility [1, 2] [µM] | IC50 (human sEH; [3]) [nM] | Solubility [1, 4] [µM] |
| --- | --- | --- | --- | --- |
| O=C(NCc1ccn(CC(F)F)n1)NC12CC3CC(CC(C3)C1)C2 [3b, 1-Adamantyl-3-{[1-(2,2-difluoroethyl)-1H-pyrazol-3-yl]methyl}urea] | – | – | 12 | 300 to 310 |
| Cn1nc(CNC(=O)NC23CC4CC(CC(C4)C2)C3)cc1C(F)(F)F [3e, 1-Adamantyl-3-[(1-metyl-5-trifluoromethyl-1H-pyrazol-3-yl)methyl]urea] | – | – | 9.9 | 160 to 170 |
| O=C(NCc1ccn(CC(F)(F)F)n1)NC12CC3CC(CC(C3)C1)C2 [3c, 1-Adamantyl-3-{[1-(2,2,2-trifluoroethyl)-1H-pyrazol-3-yl]methyl}urea] | – | – | 9.6 | 390 to 400 |
| Cn1nc(CNC(=O)NC23CC4CC(CC(C4)C2)C3)c(Cl)c1Cl [3f, 1-Adamantyl-3-[(4,5-dichloro-1-methyl-1H-pyrazol-3-yl)methyl]urea] | – | – | 0.8 | 250 to 260 |
| O=C(NCc1ccn(CCF)n1)NC12CC3CC(CC(C3)C1)C2 [3a, 1-Adamantyl-3-{[1-(2-fluoroethyl)-1H-pyrazol-3-yl]methyl}urea] | – | – | 10.2 | 440 to 450 |
| O=C(NCc1ccn(C(F)F)n1)NC12CC3CC(CC(C3)C1)C2 [3d, 1-Adamantyl-3-[(1-difluoromethyl-1H-pyrazol-3-yl)methyl]urea] | – | – | 8.8 | 670 to 680 |

Next, values leading:

| IC50 (human sEH) [nM] | Solubility [1, 2] [µM] | IC50 (human sEH; [3]) [nM] | Solubility [1, 4] [µM] | Structure (SMILES) |
| --- | --- | --- | --- | --- |
| 15 | 570 to 580 (≈ 193 to 196 µg/mL) | – | – | O=C(NCc1ccn(C(F)F)n1)NCC12CC3CC(CC(C3)C1)C2 [4d, 1-[(Adamantan-1-yl)methyl]-3-[(1-difluoromethyl-1H-pyrazol-3-yl)methyl]urea] |
| 1.2 | 120 to 130 (≈ 44.6 to 48.3 µg/mL) | – | – | Cn1nc(CNC(=O)NCC23CC4CC(CC(C4)C2)C3)c(Cl)c1Cl [4f, 1-[(Adamantan-1-yl)methyl]-3-[(4,5-dichloro-1-methyl-1H-pyrazol-3-yl)methyl]urea] |
| 13.8 | 650 to 660 (≈ 217 to 221 µg/mL) | – | – | O=C(NCc1ccn(CCF)n1)NCC12CC3CC(CC(C3)C1)C2 [4a, 1-[(Adamantan-1-yl)methyl]-3-{[1-(2-fluoroethyl)-1H-pyrazol-3-yl]methyl}urea] |
| 7.3 | 740 to 750 (≈ 274 to 278 µg/mL) | – | – | O=C(NCc1ccn(CC(F)(F)F)n1)NCC12CC3CC(CC(C3)C1)C2 [4c, 1-[(Adamantan-1-yl)methyl]-3-{[1-(2,2,2-trifluoroethyl)-1H-pyrazol-3-yl]methyl}urea] |
| – | – | 22.5 | 160 to 170 | Cn1nc(CNC(=O)NCC23CC4CC(CC(C4)C2)C3)cc1C(F)(F)F [4e, 1-[(Adamantan-1-yl)methyl]-3-[(1-metyl-5-trifluoromethyl-1H-pyrazol-3-yl)methyl]urea] |
| 27.5 | 270 to 280 (≈ 95.2 to 98.7 µg/mL) | – | – | O=C(NCc1ccn(CC(F)F)n1)NCC12CC3CC(CC(C3)C1)C2 [4b, 1-[(Adamantan-1-yl)methyl]-3-{[1-(2,2-difluoroethyl)-1H-pyrazol-3-yl]methyl}urea] |
